Values of other authors, collected in publication PMC9924909 (Brain, 2022).
Read-outs that look alike come from different tables or passages of the source.

Columns and labels:
[1] = cited from earlier work
[2] = test system: patients with GD3; details: cited from earlier work

Row | Compound | distribution to the brain [1] | effect on neurological symptoms [2] | effect on neurological symptoms ([2]; listed as miglustat)
1 | CCCCCCCC(=O)N[C@H](CN1CCCC1)[C@H](O)c1ccc2c(c1)OCCO2 [Eliglustat] | excluded from the brain | – | –
2 | CCCCN1C[C@H](O)[C@@H](O)[C@H](O)[C@H]1CO [Miglustat] | partially distributed to the brain | ineffective for neurological symptoms | no clinical benefit
